From EP0332387B1, “Triazole derivatives, their preparation and their use as fungicides” (Sankyo Company Limited, priority 1988, dated 1989) come the findings set out here.

What all share (assay type): in vivo
One test has as its system Gibberella Fujikuroi. Description: Activity against bakanae disease of rice plants by seed soaking (Experiment 5). Also noted: key: 0 = disease as untreated, 5 = no disease (complete control). The conditions noted are these: infected rice seeds (variety Tanginbozu) immersed 3 days in aqueous suspension (concentration not given), 3 weeks; number of diseased seedlings. The protocol:
Ten grams of rice seeds (variety Tanginbozu), infected with Gibberella Fujikuroi, were immersed in 20 ml of an aqueous suspension of the test compound for 3 days. At the end of this time, the treated seeds were densely sown in soil in pots, and the pots were placed in a greenhouse at 20 - 30 °C for 3 weeks. The disease controlling index was given on the basis of the number of diseased seedlings.
(§1) The compounds tested have the formula (1-1), in which Ar represents the group shown at the beginning of each part of the Table and R^1, R^2, X and Y are as defined in the Table.
(§2) The disease controlling index shown in the foregoing Tables 11 to 19 is indicated by the following codes: • 5--no disease (complete control) • 4--disease rate is less than 10% of the untreated plant • 3--disease rate is 10% - 30% of the untreated plant • 2--disease rate is 30% - 50% of the untreated plant • 1--disease rate is 50% - 70% of the untreated plant • 0--disease rate is almost same as the untreated plant.

Test [1] relates to Rhizoctonia solani. The test can be described thus: Preventive activity against sheath blight of rice plants (Experiment 2). Details: key: 0 = disease as untreated, 5 = no disease (complete control). The conditions noted are these: rice seedlings (variety Nihonbare), sprayed at 100 ppm (30 ml/3 pots) 24 hours before inoculation, 5 days; height of the lesions. The protocol:
Rice seedlings (variety Nihonbare) at the 4 - 5 leaf stage were sprayed with an aqueous suspension of the test compound at a concentration of 100 ppm (30 ml/3 pots). The seedlings were then kept for 24 hours at room temperature, after which they were inoculated with the fungus, Rhizoctonia solani, by placing 4 - 5 oat grains on which the fungus had previously been cultured around the base of each seedling. The seedlings were then kept in a moist chamber for 5 days at 25 - 27 °C. The disease controlling index was given on the basis of the height of the lesions formed on the rice seedlings.
Except in Table 12G, the compounds tested have the formula (1-1), in which Ar represents the group shown at the beginning of each part of the Table and R^1, R^2, X and Y are as defined in the Table.
as §2

The test system of another test is Pyricularia oryzae. The conditions noted are these: rice seedlings (variety Sachikaze), sprayed 24 hours after inoculation at 10 ppm (30 ml/3 pots), further 6 days; number of lesions on the upper two leaves.
The next test concerns Sphaerotheca fuliginea. The test can be described thus: Preventive activity against powdery mildew of cucumber (Experiment 8). The following applies: cucumber seedlings sprayed at 300 ppm, inoculated after 24 hours, evaluated after 7 days in greenhouse; diseased area on third and fourth leaves. As to the method:
Cucumber seedlings (variety Sagamihanpaku) at the 3 - 4 leaf stage were sprayed with an aqueous suspension of the test compound at a concentration of 300 ppm (30 ml/3 pots). The seedlings were then kept for 24 hours at room temperature, after which they were inoculated with conidida of Sphaerotheca fuliginea. After keeping the seedlings in a greenhouse for 7 days, the disease controlling index was evaluated on the basis of the diseased area on the third and fourth leaves.

Test [2] concerns Erysiphe graminis f.sp. hordei. The test can be described thus: Curative activity against powdery mildew of barley (Experiment 7). The following applies: barley seedlings (variety Sekishinriki), sprayed one day after inoculation at 3 ppm (30 ml/3 pots), further 10 days; diseased area on the first leaf. As to the method:
Barley seedlings (variety […]) at the first leaf stage were inoculated with conidia of Erysiphe graminis f.sp. hordei and kept in a greenhouse at 15 - 20°C. After one day, the seedlings were sprayed with an aqueous suspension of the test compound at a concentration of 3 ppm (30 ml/3 pots), and they continued to be kept in the greenhouse at that temperature for a further 10 days. The disease controlling index was given on the basis of the diseased area on the first leaf.

For another test, the system named is Puccinia recondita. Description: Curative activity against leaf rust of wheat (Experiment 6). The following applies: wheat seedlings (variety Norin No 61), sprayed after inoculation at 3 ppm (30 ml/3 pots), 10 days; diseased area on the first leaf. As to the method:
Wheat seedlings (variety Norin No 61) at the first leaf stage were inoculated with the fungus, Puccinia recondita, by spraying them with a spore suspension of the fungus. They were then kept in a moist chamber for 24 hours at 20 - 22 °C, after which they were moved to a greenhouse at 15 - 20 °C. […] The seedlings were then continuously kept in the greenhouse for 10 days. The disease controlling index was given on the basis of diseased area on the first leaf.

For test [3], the system named is Rhizoctonia solani. The test can be described thus: Curative activity against sheath blight of rice plants (Experiment 3). Also noted: key: 0 = disease as untreated, 5 = no disease (complete control). The following applies: rice seedlings (variety Nihonbare), sprayed 24 hours after inoculation at 10 ppm (30 ml/3 pots), further 5 days; height of the lesions. The protocol: Rice seedlings (variety Nihonbare) at the 4 - 5 leaf stage were inoculated with the fungus, Rhizoctonia solani, by placing 4 - 5 oat grains on which the fungus had previously been cultured around the base of each rice seedling and keeping them in a moist chamber at 25 - 27 °C. After 24 hours, the rice seedlings were sprayed with an aqueous suspension of the test compound at a concentration of 10 ppm (30 ml/3 pots) and they then continued to be kept in the moist chamber for a further 5 days. The disease controlling index was given on the basis of the height of the lesions formed on the rice seedlings.
as §1, §2

The test system of the next test is Venturia inaequalis. The test can be described thus: Preventive activity against apple scab (Experiment 9). The conditions noted are these: for Index (disease controlling index): apple seedlings sprayed at 300 ppm, inoculated after 24 hours, 3 days moist chamber then 10 days greenhouse, diseased area on third and fourth leaves. As to the method: Apple seedlings at the 3 - 4 leaf stage were sprayed with an aqueous suspension of the test compound at a concentration of 300 ppm (30 ml/3 pots). The seedlings were then kept for 24 hours at room temperature, after which they were inoculated with the fungus, Venturia inaequalis, by spraying a spore suspension of the fungus over the seedlings. After inoculation, the seedlings were kept in a moist chamber for 3 days at 20 - 22 °C and then moved to a greenhouse at 20 - 22°C for 10 days. The disease controlling index was given on the basis of the diseased area on the third and fourth leaves.

Test [4] concerns Rhizoctonia solani. The test can be described thus: Preventive activity against sheath blight of rice plants by submerged application (Experiment 4). The following applies: rice seedlings (variety Nihonbare), applied to the water in the pots, 100 g per 10 ares, inoculated after 7 days, 5 days; height of the lesions.
Excerpt: Rice seedlings (variety Nihonbare) at the 4 - 5 leaf stage grown in pots were flooded to a depth of 1 cm with water. The test compound was then applied to the water in the pots in an amount corresponding to 100 g per 10 ares. After keeping the seedlings in a greenhouse for 7 days, the water was drained from the pots and the seedlings were inoculated with the fungus, Rhizoctonia solani, by placing 4 - 5 oat grains on which the fungus had previously been cultured around the base of each seedling. The seedlings were then kept in a moist chamber for 5 days at 25 - 27 °C. The disease controlling index was given on the basis of the height of the lesions formed on the rice seedlings.
Except for Table 14F, the compounds tested have the formula (1-1), in which Ar represents the group shown at the beginning of each part of the Table and R^1, R^2, X and Y are as defined in the Table.
as §2

In the case of `C[C@@H](NC(=O)c1ccc(C(F)(F)F)cc1)[C@](O)(Cn1cncn1)c1ccc(Cl)cc1Cl` [Example 13, (2R, 3R)-2-(2,4-Dichlorophenyl)-3-(4-trifluoromethylbenzoylamino)-1-(1H-1,2,4-triazol-1-yl)-2-butanol], the disease controlling index in the test on Gibberella Fujikuroi was 5; with Rhizoctonia solani [1], 4 (disease rate is less than 10% of the untreated plant); in the test with Pyricularia oryzae it was 5; in [2], 5; with Puccinia recondita, 5. Also, in the test with Sphaerotheca fuliginea, the “Index (disease controlling index)” value is on record as 5.
`C[C@@H](NC(=O)c1ccc(F)cc1)[C@](O)(Cn1cncn1)c1ccc(F)cc1F` (relative stereo) [Example 15, (2R*, 3R*)-2-(2,4-Difluorophenyl)-3-(4-fluorobenzoylamino)-1-(1H-1,2,4-triazol-1-yl)-2-butanol]: the disease controlling index is listed as 4 (disease rate is less than 10% of the untreated plant) in the test with Gibberella Fujikuroi, 5 in test [2] and 5 in the test on Puccinia recondita. The “Index (disease controlling index)” value with Sphaerotheca fuliginea amounted to 5.
As to `CC[C@@H](OC1CCCCO1)[C@](O)(Cn1cncn1)c1ccc(F)cc1F` (relative stereo) [Example 202, (2R^*, 3R*)-2-(2,4-Difluorophenyl)-3-tetrahydropyranyloxy)-1-(1H-1,2,4-triazol-1-yl)-2-pentanol], the disease controlling index is 4 (disease rate is less than 10% of the untreated plant) with Rhizoctonia solani [3]; 4 (disease rate is less than 10% of the untreated plant) in the test with Rhizoctonia solani [1]; 4 (disease rate is less than 10% of the untreated plant) in the test with Pyricularia oryzae; 5 in [2]; 5 with Puccinia recondita.
As to `C[C@@H](NC(=O)c1ccc(F)cc1)[C@](O)(Cn1cncn1)c1ccc(Cl)cc1Cl` (relative stereo) [Example 4, (2R*, 3R*)-2-(2,4-Dichlorophenyl)-3-(4-fluorobenzoylamino)-1-(1 H-1 ,2,4-triazol-1-yl)-2-butanol], the disease controlling index with Rhizoctonia solani [1] is recorded as 4 (disease rate is less than 10% of the untreated plant); in test [2] it was 5; in the test on Puccinia recondita, 5. Also, the “Index (disease controlling index)” value in the test on Venturia inaequalis is 5.
Turning to `C[C@@H](NC(=O)c1ccc(C(F)(F)F)cc1)[C@](O)(Cn1cncn1)c1ccc(Cl)cc1Cl` (relative stereo) [Example 12, (2R*, 3R*)-2-(2,4-Dichlorophenyl)-1-(1H-1,2,4-triazol-1-yl)-3-(4-trifluoromethylbenzoylamino)-2-butanol], the disease controlling index was 5 with Rhizoctonia solani [3]; 4 (disease rate is less than 10% of the untreated plant) in the test with Gibberella Fujikuroi; 5 with Rhizoctonia solani [1]; 5 in the test with Pyricularia oryzae; 5 in [2]; 5 with Puccinia recondita. Also, the “Index (disease controlling index)” value in the test on Sphaerotheca fuliginea and in the test with Venturia inaequalis was 5 throughout.
As for `C[C@@H](N=[N+]=[N-])[C@](O)(Cn1cncn1)c1ccc(Cl)cc1` (relative stereo) [Example 63, (2R*, 3R*)-3-Azido-2-(4-chlorophenyl)-1-(1H-1,2,4-triazol-1-yl)-2-butanol], the disease controlling index in the test with Gibberella Fujikuroi worked out at 5.
`C[C@@H](NC(=O)c1ccc(Cl)cc1)[C@](O)(Cn1cncn1)c1ccc(F)cc1F` (relative stereo) [Example 16, (2R*, 3R*)-3-(4-Chlorobenzoylamino)-2-(2,4-difluorophenyl)-1-(1 H-1 ,2,4-triazol-1-yl)-2-butanol]: the disease controlling index is given as 5 in the test with Rhizoctonia solani [3]; 4 (disease rate is less than 10% of the untreated plant) in the test with Gibberella Fujikuroi; 5 in the test with Rhizoctonia solani [1]; 5 with Pyricularia oryzae; 5 in test [2]; 5 with Puccinia recondita. Besides, the disease controlling index with Venturia inaequalis (apple seedlings, sprayed at 300 ppm (30 ml/3 pots) 24 hours before inoculation, diseased area on the third and fourth leaves) is 5. Further, the “Index (disease controlling index)” value with Sphaerotheca fuliginea is reported as 5.
For the molecule `C[C@@H](CN=[N+]=[N-])[C@](O)(Cn1cncn1)c1ccc(Cl)cc1Cl` (relative stereo) [Example 90, (2R*, 3S*)-4-Azido-2-(2,4-dichlorophenyl)-3-methyl-1-(1H-1,2,4-triazol-1-yl)-2-butanol], the disease controlling index in the test with Gibberella Fujikuroi, in the test with Rhizoctonia solani [1], in the test on Pyricularia oryzae and with Rhizoctonia solani [4] was 5 in each case.
Regarding `C[C@@H](N1C(=O)c2ccc(Cl)cc2C1=O)[C@](O)(Cn1cncn1)c1ccc(F)cc1F` (relative stereo) [Example 135, (2R*, 3R*)-2-(2,4-Difluorophenyl)-3-(4-chlorophthalimido)-1-(1H-1,2,4-triazol-1-yl)-2-butanol], the disease controlling index in the test on Gibberella Fujikuroi was 4 (disease rate is less than 10% of the untreated plant); with Pyricularia oryzae, 4 (disease rate is less than 10% of the untreated plant); in test [2], 5; in the test on Puccinia recondita, 5. Further, in the test on Sphaerotheca fuliginea, the “Index (disease controlling index)” value was found to be 5.
With `C[C@@H](NC(=O)c1ccc(Cl)cc1Cl)[C@](O)(Cn1cncn1)c1ccc(Cl)cc1Cl` (relative stereo) [Example 11, (2R*, 3R*)-3-(2,4-Dichlorobenzoylamino)-2-(2,4-dichlorophenyl)-1-(1H-1,2,4-triazol-1-yl)-2-butanol], the disease controlling index in the test with Gibberella Fujikuroi and in the test on Rhizoctonia solani [1] was 4 (disease rate is less than 10% of the untreated plant) each time. Also, the “Index (disease controlling index)” value with Sphaerotheca fuliginea and in the test on Venturia inaequalis was 5 throughout.
